≈ marks a conversion by molar mass, not a printed value.
What was measured:
[1] = Cytotoxicity against human OVCAR8 cells assessed as reduction in cell viability at 25 ug/mL after 72 hrs by MTT assay; type: functional, OVCAR-8
[2] = Cytotoxicity against human HCT116 cells assessed as reduction in cell viability at 25 ug/mL after 72 hrs by MTT assay; type: functional, HCT-116
[3] = Cytotoxicity against human SF295 cells assessed as reduction in cell viability at 25 ug/mL after 72 hrs by MTT assay; type: functional, SF-295
HT-29 = experiment: Cytotoxicity against human HT-29 cells; type: functional; details: read-out: ED50 (the source's name)
[4] = Cytotoxicity against human OVCAR8 cells after 72 hrs by MTT assay; type: functional, OVCAR-8
[5] = Cytotoxicity against human HCT116 cells after 72 hrs by MTT assay; type: functional, HCT-116
[6] = Cytotoxicity against human SF295 cells after 72 hrs by MTT assay; type: functional, SF-295
[7] = Cytotoxicity against human HL60 cells after 72 hrs by MTT assay; type: functional, HL-60

Structure (SMILES) | Activity [1] | Activity [2] | Activity [3] | EC50 (HT-29) | RC50 [4] | RC50 [5] | RC50 [6] | RC50 [7]
COc1ccc(Cl)cc1C1=C(Br)C(=O)O/C1=C\c1ccc([N+](=O)[O-])cc1 | 53.71% | 92.2% | 82.86% |  |  |  |  | 
COc1ccc(Cl)cc1C1=C(Br)C(=O)O/C1=C\c1ccc(F)cc1 | 32.6% | 55.49% | 84.72% |  |  |  |  | 
COc1ccc(Br)cc1-c1c(Cc2ccccc2Cl)n[nH]c(=O)c1Br | 27.93% | 38.1% | 47.29% |  |  |  |  | 
O=C1O/C(=C\c2ccc(C(F)(F)F)cc2)C(Cl)=C1Cl | 98.2% | 76.92% | 92.21% |  |  |  |  | 
O=C1O/C(=C\c2ccc(O)c(Br)c2)C(c2ccc(O)cc2)=C1Cl |  |  |  | 1.2 mg/L (≈ 3.05 µM) |  |  |  | 
COc1ccccc1C1=C(Br)C(=O)N(CC(C)C)/C1=C\c1ccc(C(F)(F)F)cc1 | 47.91% | 79.09% | 51.01% |  |  |  |  | 
COc1ccc(Br)cc1C1=C(Br)C(=O)O/C1=C\c1ccc(Br)cc1 | 98.28% | 97.53% | 75.68% |  |  |  |  | 
CC(C)CN1C(=O)C(Cl)=C(Cl)C1(O)Cc1ccc(Br)cc1 (stereo unspecified) | 13.42% | 49.89% | 42.06% |  |  |  |  | 
O=C1O/C(=C\c2ccc(F)cc2)C(Cl)=C1Cl | 98.99% | 97.68% | 68.44% |  |  |  |  | 
COc1ccc(C)cc1C1=C(Br)C(=O)N(CC(C)C)C1(O)Cc1ccccc1Cl (stereo unspecified) | 44.39% | 78.5% | 63.57% |  |  |  |  | 
COc1cccc(/C=C2\OC(=O)C(Br)=C2c2cc(Cl)ccc2OC)c1 | 97.92% | 97.09% | 48.09% |  |  |  |  | 
COc1cccc(/C=C2\C(c3cc(Cl)ccc3OC)=C(Br)C(=O)N2CC(C)C)c1 | 55.28% | 75.51% | 79.36% |  |  |  |  | 
COc1ccc(Br)cc1C1=C(Br)C(=O)N(CC(C)C)/C1=C/c1cccc(Cl)c1 | 93.39% | 93.44% | 90.65% |  | 4.18 µM | 5.52 µM | 8.03 µM | 3.46 µM
CC(C)CN1C(=O)C(Cl)=C(Cl)/C1=C\c1ccc(Br)cc1 | 52.94% | 57.48% | 58.59% |  |  |  |  | 
COc1ccc(Br)cc1-c1c(Cc2ccc(C(F)(F)F)cc2)n[nH]c(=O)c1Br | 46.18% | 98.03% | 74.92% |  |  |  |  | 
COc1ccc(Br)cc1C1=C(Br)C(=O)N(CC(C)C)C1(O)Cc1ccc(Br)cc1 (stereo unspecified) | 32.1% | 82.39% | 56.18% |  |  |  |  | 
COc1ccc(Cl)cc1-c1c(Cc2ccc(C(F)(F)F)cc2)n[nH]c(=O)c1Br | 53.87% | 97.73% | 73.87% |  |  |  |  | 
COc1ccc(Br)cc1C1=C(Br)C(=O)N(CC(C)C)/C1=C\c1cccc(Cl)c1 | 52.15% | 86.98% | 72.36% |  |  |  |  | 
COc1ccc(Cl)cc1-c1c(Cc2ccc(F)cc2)n[nH]c(=O)c1Br | 42.17% | 14.71% | 18.95% |  |  |  |  | 
COc1ccc(Br)cc1C1=C(Br)C(=O)N(CC(C)C)/C1=C\c1ccc(Br)cc1 | 25.49% | 44.22% | 30.25% |  |  |  |  | 
COc1ccccc1C1=C(Br)C(=O)O/C1=C\c1ccc(C(F)(F)F)cc1 | 98.85% | 84.46% | 71.31% |  |  |  |  | 
COc1ccc(Br)cc1C1=C(Br)C(=O)N(CC(C)C)/C1=C/c1ccc(Br)cc1 | 90.66% | 97.98% | 53.77% |  |  |  |  | 
O=C1O/C(=C\c2ccc(O)c(Br)c2)C(c2ccc(O)c(Br)c2)=C1Cl |  |  |  | 1.2 mg/L (≈ 2.54 µM) |  |  |  | 

Structure (SMILES) | Activity [1] | Activity [2] | Activity [3] | EC50 (HT-29) | RC50 [4] | RC50 [5] | RC50 [6] | RC50 [7]
O=C1O/C(=C\c2ccccc2Br)C(Cl)=C1Cl | 93.14% | 97.58% | 92.81% |  | 11.64 µM | 32.22 µM | 32.64 µM | 10.01 µM
O=C1O/C(=C\c2ccc(Cl)cc2)C(Cl)=C1Cl | 0% | 95.81% | 48.84% |  |  |  |  | 
O=C1O/C(=C\c2cccc(Cl)c2)C(Cl)=C1Cl | 99.86% | 62.17% | 86.08% |  |  |  |  | 
CC(C)CN1C(=O)C(Cl)=C(Cl)/C1=C/c1ccc(Br)cc1 | 54.45% | 97.93% | 48.29% |  |  |  |  | 
CCCN1C(=O)C(Cl)=C(Cl)/C1=C\c1ccc(F)cc1 | 99.07% | 64.83% | 97.74% |  |  |  |  | 
COc1ccc(C)cc1C1=C(Br)C(=O)N(CC(C)C)/C1=C/c1ccccc1Cl | 34.8% | 19.23% | 6.91% |  |  |  |  | 
COc1ccccc1C1=C(Br)C(=O)N(CC(C)C)C1(O)Cc1ccc(C(F)(F)F)cc1 (stereo unspecified) | 21.61% | 78.84% | 67.94% |  |  |  |  | 
COc1ccc(Br)cc1C1=C(Br)C(=O)O/C1=C\c1ccccc1Cl | 57.61% | 74.4% | 49.4% |  |  |  |  | 
COc1cccc(Cc2n[nH]c(=O)c(Br)c2-c2cc(Br)ccc2OC)c1 | 10.69% | 10.78% | 30.95% |  |  |  |  | 
COc1ccc(Cl)cc1-c1c(Cc2cccc([N+](=O)[O-])c2)n[nH]c(=O)c1Br | 37.42% | 31.84% | 47.34% |  |  |  |  | 
CCCN1C(=O)C(Cl)=C(Cl)C1(O)Cc1ccc(F)cc1 (stereo unspecified) | 9.25% | 25.82% | 10.95% |  |  |  |  | 
COc1cccc(CC2(O)C(c3cc(Cl)ccc3OC)=C(Br)C(=O)N2CC(C)C)c1 (stereo unspecified) | 27% | 67.25% | 69.2% |  |  |  |  | 
O=C1O/C(=C\c2ccc([N+](=O)[O-])cc2)C(Cl)=C1Cl | 98.2% | 93.05% | 84.12% |  | 9.51 µM | 22.76 µM | 29.37 µM | 8.98 µM
COc1ccc(Br)cc1C1=C(Br)C(=O)N(CC(C)C)C1(O)Cc1cccc(Cl)c1 (stereo unspecified) | 98.49% | 92.75% | 78.09% |  |  |  |  | 
COc1ccc(C)cc1C1=C(Br)C(=O)N(CC(C)C)/C1=C\c1ccccc1Cl | 20.46% | 77.02% | 61.86% |  |  |  |  | 
O=C1O/C(=C\c2ccc3c(c2)OCO3)C(Cl)=C1Cl | 94.9% | 53.64% | 87.84% |  |  |  |  | 
COc1ccc(Br)cc1C1=C(Br)C(=O)O/C1=C\c1ccc(F)cc1 | 94.68% | 94.87% | 82.06% |  | 5.17 µM | 13.06 µM | 15.44 µM | 9.8 µM
COc1ccc(Br)cc1-c1c(Cc2ccc(F)cc2)n[nH]c(=O)c1Br | 29.08% | 59.8% | 48.14% |  |  |  |  | 
COc1ccccc1C1=C(Br)C(=O)N(CC(C)C)/C1=C/c1ccc(C(F)(F)F)cc1 | 75.07% | 88.8% | 84.72% |  |  |  |  | 
COc1ccc(Cl)cc1C1=C(Br)C(=O)O/C1=C\c1ccc(C(F)(F)F)cc1 | 96.84% | 91.81% | 80.1% |  | 7.51 µM | 12.66 µM | 14.12 µM | 5.5 µM
COc1ccc(C)cc1C1=C(Br)C(=O)O/C1=C\c1ccccc1Cl | 26.18% | 35.84% | 2.02% |  |  |  |  | 
COc1cccc(/C=C2/C(c3cc(Cl)ccc3OC)=C(Br)C(=O)N2CC(C)C)c1 | 42.28% | 38.65% | 25.57% |  |  |  |  | 

— ChEMBL document CHEMBL3779873, “Rubrolide analogues and their derived lactams as potential anticancer agents” (Medchemcomm, 2016)
